Data as given in patent US11766430B2, “Methods of using a phenoxypropylamine compound to treat pain” (Minerva Neurosciences, Inc., priority 2018, dated 2023).
Several values for one entry are separate records, joined by “and”; a condition that tells them apart may be missing. Equal entries are not always repeated.

Test system: peripheral mononeuropathy (Bennett model) in rats
Experiment: Peripheral mononeuropathy (Bennett model, chronic constriction injury), paw pressure test (Example 3)
Type: in vivo, male Sprague-Dawley rats
Conditions: for paw withdrawal threshold, control paw, Mean: n = 10; for Nociceptive threshold, control paw (mean ± s.e.m.): T0 (14 days after surgery, before dosing)
Experimental: The model of Chronic Constriction Injury (CCI) is based on a discrete peripheral nerve injury and can be related to post-traumatic/postsurgical neuropathic pain experienced by patients (Bennett, G. J. and Xie, Y. K., A peripheral mononeuropathy in rat that produces disorders of pain sensation like those seen in man, Pain, 1988(33):87-107). Unilateral peripheral mononeuropathy was induced by loose ligation of the rat the sciatic nerve of the right hindpaw in anaesthetized rats (xylazine 10 mg/kg i.p., ketamine 60 mg/kg i.p.). The common sciatic nerve was exposed at the level of the middle of the thigh by blunt dissection through the biceps femoris. Proximal to the sciatic trifurcation, four ligatures were tied loosely around it with about 1 mm spacing. Great care was taken to tie the ligatures, such that the diameter of the nerve was seen to be just barely constricted.
Fourteen days later, static mechanical hyperalgesia is assessed using the Paw pressure test (Randall, L. O. and Selitto, J. J., A method for measurement of analgesic activity on inflamed tissue, Arch Int Pharmacodyn, 1957(111):409-419). This test requires the application of an increasing pressure on the hind paws between a flat surface and a blunt pointer. This test is usually used with animals with one hindpaw inflamed by an injection or injured by ligation, and one normal hindpaw, to evaluate drugs for analgesic action. The apparatus exerts a steadily increasing force and reaction threshold is determined as the pressure (g) required to elicit paw withdrawal and/or vocalization. Ugo Basile Analgesimeter (Ugo Basile, Italy) was used for the paw pressure test.
Fourteen days after surgery (D0), nociceptive reaction thresholds (vocalization or paw withdrawal) was measured in order to select animals meeting the inclusion criteria: 20 g<paw withdrawal threshold<240 g (baseline).
Fifty (50) male Sprague-Dawley rats (SPF status, Janvier, France), weighing 133-181 grams the day of surgery were used. Rats were housed in a temperature (20-24° C.) and relative humidity (45%-65%) controlled room and acclimated to an artificial day/night cycle of 12 hours light (6:30 a.m. to 6:30 p.m.)/12 hours darkness. Rats had free access to sterilized tap water and were fed ad libitum with pelleted complete diet (reference A04, S.A.F.E.). Animals were housed 4 per cage (cages Type E) and were acclimated for a period of at least 5 days before any testing. Each rat was identified by tail markings. Based on the SPF status of the animal facilities, there is no reason to expect that contaminants were present in the food, water or bedding, at levels capable of interfering with the results of the tests. […]
Vehicle and MIN-117 were intraperitoneally administered at 10 mL/kg. […] Dosing and testing were performed in a random order by a blinded experimenter except for the morphine-treated group.
Thirty minutes after morphine injection, the antihyperalgesic effect of morphine was evaluated using the paw pressure test. For vehicle and MIN-117 administration, the antihyperalgesic effect of the was evaluated after 120 min. using the paw pressure test.
Results were expressed as: • The paw withdrawal threshold (mean±s.e.m.) in grams of contact pressure for each group, calculated from individual paw withdrawal thresholds • The percentage of variation of the paw withdrawal threshold calculated from the mean value of the vehicle-treated group • The percentage of activity of the compound on mechanical hyperalgesia induced by the sciatic nerve ligation, calculated as follows: […]

[1] = CCI rats, MIN-117 1 mg/kg IP group, Baseline (pre-treatment)
[2] = CCI rats, MIN-117 1 mg/kg IP, 120 min
[3] = CCI rats, MIN-117 1 mg/kg IP, 120 min after treatment, hydrochloride, 1 mg/kg
[4] = CCI rats, MIN-117 3 mg/kg IP group, Baseline (pre-treatment)
[5] = CCI rats, MIN-117 3 mg/kg IP, 120 min
[6] = CCI rats, MIN-117 3 mg/kg IP, 120 min after treatment, hydrochloride, 3 mg/kg
[7] = CCI rats, MIN-117 10 mg/kg IP group, Baseline (pre-treatment)
[8] = CCI rats, MIN-117 10 mg/kg IP, 120 min
[9] = CCI rats, MIN-117 10 mg/kg IP, 120 min after treatment, hydrochloride, 10 mg/kg
[10] = CCI, 1 mg/kg IP, T0 (before dosing)
[11] = CCI, 3 mg/kg IP, T0 (before dosing)
[12] = CCI, 10 mg/kg IP, T0 (before dosing)
[13] = CCI rats, Morphine 3 mg/kg IP [sic], 30 min
[14] = CCI rats, Morphine 3 mg/kg IP [sic], 30 min after treatment
[15] = CCI rats, Morphine 3 mg/kg group, Baseline (pre-treatment)
[16] = CCI, 3 mg/kg SC, T0 (before dosing)

**Q.** Which results are given for `Cc1nnc(-c2cc3c(OC[C@@H](O)CN4CCC(c5ccc(Cl)c(Cl)c5)CC4)cccc3o2)o1.Cl` [MIN-117, (2S)-1-(4-(3,4-dichlorophenyl)piperidin-1-yl)-3-((2-(5-methyl-1,3,4-oxadiazol-2-yl)benzofuran-4-yl)oxy)propan-2-ol hydrochloride]?
**A.** % variation vs control paw, injured paw [1]: −54%; % variation vs vehicle treated group, injured paw [1]: −6%; paw withdrawal threshold, control paw, Mean [1]: 366 g; % activity on mechanical hyperalgesia, injured paw [2]: 9%; % variation vs control paw, injured paw [2]: −47%; % variation vs pre-drug threshold, injured paw [2]: 10%; % variation vs vehicle treated group, injured paw [2]: 11%; paw withdrawal threshold, control paw, individual rats [3]: 400 g (2×) and 300 g (2×) and 360 g and 320 g (4×) and 440 g; paw withdrawal threshold, injured paw, individual rats [3]: 200 g (3×) and 180 g (3×) and 160 g (3×) and 220 g; paw withdrawal threshold, control paw, Mean (CCI rats, MIN-117 1 mg/kg IP, 120 min after treatment): 348 g; % variation vs control paw, injured paw [4]: −55%; % variation vs vehicle treated group, injured paw [4]: −8%; paw withdrawal threshold, control paw, Mean [4]: 364 g; % activity on mechanical hyperalgesia, injured paw [5]: 29%; % variation vs control paw, injured paw [5]: −40%; % variation vs pre-drug threshold, injured paw [5]: 35%; % variation vs vehicle treated group, injured paw [5]: 34%; paw withdrawal threshold, control paw, individual rats [6]: 440 g and 420 g (2×) and 300 g and 360 g (2×) and 340 g (2×) and 460 g and 280 g; paw withdrawal threshold, injured paw, individual rats [6]: 280 g and 220 g (2×) and 200 g (3×) and 180 g and 240 g (3×); paw withdrawal threshold, control paw, Mean (CCI rats, MIN-117 3 mg/kg IP, 120 min after treatment): 372 g; % variation vs control paw, injured paw [7]: −55%; % variation vs vehicle treated group, injured paw [7]: −8%; paw withdrawal threshold, control paw, Mean [7]: 368 g; % activity on mechanical hyperalgesia, injured paw [8]: 59%; % variation vs control paw, injured paw [8]: −33%; % variation vs pre-drug threshold, injured paw [8]: 71%; % variation vs vehicle treated group, injured paw [8]: 69%; paw withdrawal threshold, control paw, individual rats [9]: 600 g and 320 g and 440 g (4×) and 400 g and 280 g and 480 g and 360 g; paw withdrawal threshold, injured paw, individual rats [9]: 440 g and 320 g (2×) and 260 g and 220 g and 240 g (4×) and 280 g; paw withdrawal threshold, control paw, Mean (CCI rats, MIN-117 10 mg/kg IP, 120 min after treatment): 420 g; Nociceptive threshold, control paw (mean ± s.e.m.) (CCI, 1 mg/kg IP): 366 ± 16.1 g; % variation vs control paw, injured paw [10]: −54%; % variation vs vehicle-treated group, injured paw [10]: −6%; Nociceptive threshold, injured paw (mean ± s.e.m.) [10]: 168 ± 8.0 g; % variation vs control paw, injured paw (CCI, 1 mg/kg IP, T0 + 120 min): −47%; % variation vs pre-drug threshold, injured paw (CCI, 1 mg/kg IP, T0 + 120 min): 10%; % variation vs vehicle-treated group, injured paw (CCI, 1 mg/kg IP, T0 + 120 min): 11%; Nociceptive threshold, injured paw (mean ± s.e.m.) (CCI, 1 mg/kg IP, T0 + 120 min): 184 ± 6.5 g; Effect on nociceptive threshold vs vehicle-treated group (in words) (CCI, 1 mg/kg i.p., 120 min. after treatment): did not induce any significant increase; Nociceptive threshold, control paw (mean ± s.e.m.) (CCI, 3 mg/kg IP): 364 ± 9.8 g; % variation vs control paw, injured paw [11]: −55%; % variation vs vehicle-treated group, injured paw [11]: −8%; Nociceptive threshold, injured paw (mean ± s.e.m.) [11]: 164 ± 5.8 g; % variation vs control paw, injured paw (CCI, 3 mg/kg IP, T0 + 120 min): −40%; % variation vs pre-drug threshold, injured paw (CCI, 3 mg/kg IP, T0 + 120 min): 35%; % variation vs vehicle-treated group, injured paw (CCI, 3 mg/kg IP, T0 + 120 min): 34%; Nociceptive threshold, injured paw (mean ± s.e.m.) (CCI, 3 mg/kg IP, T0 + 120 min, hydrochloride, 3 mg/kg): 222 ± 9.2 g; Effect on nociceptive threshold vs vehicle-treated group (in words) (CCI, 3 mg/kg i.p., after 120 min.): significant increase; Nociceptive threshold, control paw (mean ± s.e.m.) (CCI, 10 mg/kg IP): 368 ± 16.9 g; % variation vs control paw, injured paw [12]: −55%; % variation vs vehicle-treated group, injured paw [12]: −8%; Nociceptive threshold, injured paw (mean ± s.e.m.) [12]: 164 ± 7.2 g; % variation vs control paw, injured paw (CCI, 10 mg/kg IP, T0 + 120 min): −33%; % variation vs pre-drug threshold, injured paw (CCI, 10 mg/kg IP, T0 + 120 min): 71%; % variation vs vehicle-treated group, injured paw (CCI, 10 mg/kg IP, T0 + 120 min): 69%; Nociceptive threshold, injured paw (mean ± s.e.m.) (CCI, 10 mg/kg IP, T0 + 120 min, hydrochloride, 10 mg/kg): 280 ± 20.9 g; Effect on nociceptive threshold vs vehicle-treated group (in words) (CCI, 10 mg/kg i.p., after 120 min.): significant increase

**Q.** Which “% activity on mechanical hyperalgesia, injured paw” value [13] does the source give for `CN1CC[C@]23c4c5ccc(O)c4O[C@H]2[C@@H](O)C=C[C@H]3[C@H]1C5` [Morphine, reference compound] here?
**A.** 165%

**Q.** What about the “% variation vs control paw, injured paw” value [13] of the same compound?
**A.** −23%

**Q.** What about the “% variation vs pre-drug threshold, injured paw” value [13] of the same compound?
**A.** 159%

**Q.** What about the “paw withdrawal threshold, control paw, individual rats” value [14] of the same compound?
**A.** 680 g (2×) and 640 g (3×) and 600 g (3×) and 560 g and 660 g

**Q.** And the “paw withdrawal threshold, injured paw, individual rats” value [14]?
**A.** 680 g and 600 g (2×) and 480 g (2×) and 560 g and 320 g and 500 g and 240 g and 400 g

**Q.** And the “paw withdrawal threshold, control paw, Mean” value [14]?
**A.** 630 g

**Q.** What about the “% variation vs control paw, injured paw” value [15] of the same compound?
**A.** −49%

**Q.** What about the “% variation vs vehicle treated group, injured paw” value [15] of the same compound?
**A.** 6%

**Q.** What about the “paw withdrawal threshold, control paw, Mean” value [15] of the same compound?
**A.** 372 g

**Q.** And the “Nociceptive threshold, control paw (mean ± s.e.m.)” value (CCI, 3 mg/kg SC)?
**A.** 372 ± 20.7 g

**Q.** What about the “% variation vs control paw, injured paw” value [16] of the same compound?
**A.** −49%

**Q.** What about the “% variation vs vehicle-treated group, injured paw” value [16] of the same compound?
**A.** 6%

**Q.** And the “Nociceptive threshold, injured paw (mean ± s.e.m.)” value (CCI, 3 mg/kg SC, T0 (before dosing), 3 mg/kg)?
**A.** 188 ± 10.4 g

**Q.** What about the “% variation vs control paw, injured paw” value (CCI, 3 mg/kg SC, T0 + 30 min) of the same compound?
**A.** −23%

**Q.** And the “% variation vs pre-drug threshold, injured paw” value (CCI, 3 mg/kg SC, T0 + 30 min)?
**A.** 159%

**Q.** What about the “Nociceptive threshold, injured paw (mean ± s.e.m.)” value (CCI, 3 mg/kg SC, T0 + 30 min, 3 mg/kg) of the same compound?
**A.** 486 ± 42.8 g

**Q.** And the “Effect on nociceptive threshold vs baseline pre-treatment (in words)” value (CCI, 3 mg/kg s.c., 30 min. after the administration)?
**A.** pronounced and significant increase
